{
  "source": "patent US20160279236A1",
  "about": "“USE OF RAPAMYCIN AS VACCINE ADJUVANT AND PREPARATION METHOD THEREFOR” (INSTITUT PASTEUR OF SHANGHAI, CHINESE ACADEMY OF SCIENCES, priority 2013, published 2016)",
  "key": {"BMDCs [1]": {"tested_on": "BMDCs", "assay": "Cytokine production (ELISA) in LPS-stimulated BMDCs pre-treated with rapamycin", "format": "cell-based, C57BL/6 mice", "method": "Bone marrow stem cells from 6-8 weeks aged C57BL/6 mice were taken, and erythrocytes were removed by using ammonium chloride lysate (0.15 M NH4Cl, 1 mM […], 0.1 mM Na2EDTA, pH7.3), and then suspension-cultured at a cell density of 10^6 cells/mL in a dendritic cell (bone-marrow derived dendritic cell, BMDC) differentiation medium (formulation of which was: RPMI 1640 complete medium (comprising 5% (v/v) FBS and 1% (v/v) pen strep), with 20 ng/ml GM-CSF, 10 ng/ml IL-4, 2 mM L-glutamine and 200 μM β-mercaptoethanol being added). After differentiation for 7 days, the cells were purified with CD11c magnetic beads to obtain BMDCs. The purified BMDCs were resuspended in a fresh dendritic cell culture medium (10^6 cells/ml), and inoculated into 24-well plate with 500 μL per well 100 nM of rapamycin or DMSO (control) were used to pre-treat the cells for 1 hour, and then the cells were stimulated with 100 ng/ml LPS for 24 hours. The supernatant was taken and the amount of IL-12 was measured by ELISA."}, "BMDCs [2]": {"tested_on": "BMDCs", "assay": "IL-12 expression (ELISA) in BMDCs stimulated by Toll-like receptor agonists with or without rapamycin", "format": "cell-based, mouse", "conditions": "rapamycin 100 nM 1 hour", "method": "The present inventors have firstly studied the influence of rapamycin on IL-12 expression induced by a variety of Toll-like receptors agonist including polyI:C by in vitro experiments. Dendritic cells differentiated from mouse bone marrow cells (BMDCs differentiated for 7 days with 20 ng/ml GM-CSF and 10 ng/ml IL-4) were pre-treated with or without rapamycin (100 nM) for 1 hour, and stimulated by LPS (100 ng/ml), MPL (1 μg/ml), R848 (1 μg/ml) and polyI:C (20 μg/ml) respectively for 24 hours, and cell culture media were taken to determine the content of IL-12 by ELISA."}, "[3]": {"tested_on": "HBsAg-specific antibody and T cell responses", "assay": "HBsAg VLP immunization of mice with adjuvants: antibody titers and Elispot T cell responses", "format": "in vivo, C57BL/6 mice", "method": "Virus-like particles (VLP) consisting of (HBV) outer membrane protein antigens is one of the few successful recombinant vaccines clinically used. Aluminum adjuvant (Alum) can only enhance the immune response of VLP in health populations, while it is of limited effects in the elderly people and patients with renal dysfunction. […] In order to further analyze the adjuvant activity of rapamycin, C57BL/6 mice were immunized by the inventors using HBsAg VLP (5 μg/mouse) (Shanghai Yemin Biotechnology Co., Ltd., Item number YM-101) as antigen in mixture with Alum (200 μg/mouse), Alum (200 μg/mouse)+MPL (10 μg/mouse), MPL (10 μg/mouse)+rapamycin (100 μg/mouse) respectively, and was immunized with HBsAg (without MPL or rapamycin) 3 weeks after the primary immunization. The mice were killed 2 weeks after the secondary immunization, and blood was taken to determine the content of HBsAg-specific IgG1, IgG2b, IgG2c. To test HBsAg-specific T cell responses, the inventors have determined HBsAg-specific induced Th1, Th17 and Th2 responses by Elispot (Elispot Assay).\nThe specific operations are listed as follows: spleen cells were inoculated at 5×10^5 cells per-well into Elispot 96-wells plate of IFNγ, IL-17 or IL-4, and treated or untreated (control) with HBsAg (10 μg/ml) or CD8 peptides (10 μg/ml, […], VWLSVIWM, China Peptides Co., LTD., Shanghai), incubated under 37° C., 5% CO2 for two days. The cells and supernatants were removed. The plates were washed with PBST for 5 times, then incubated with 50 μl of 2 μg/ml biotin-coupled IFNγ (ebioscience, cat No: 13-7312), IL-17 (ebioscience, cat No: 13-7177) or IL-4 (Mabtech, cat No: 3311-6-250) detecting antibody under 37° C. for 2 hours, washed with PBST for 5 times, then incubated with 100 μl of 1000-fold diluted Streptavidin-alkaline phosphatase (Mabtech, cat No: 3310-10) under 37° C. for 1 hour. After this incubation, plates washed with PBST for 3 times, and then washed with PBS for two times. 100 μl of NBT/CPIT substrate (Mabtech, cat No: 3650-10) was added and incubated at room temperature for 0.5 hour. Plates were washed with deionized water for 3 times, and then naturally dried in darkness. The numbers of positive spots was calculated with Elispot Reader, and then statistically analyzed."}, "[4]": {"tested_on": "HBsAg-specific antibody titers", "assay": "HBsAg homologous prime-boost immunization with adjuvants", "format": "in vivo, C57BL6 mice", "method": "HBsAg (5 μg/mouse) was respectively mixed with the following adjuvants or adjuvant combinations: rapamycin (100 μg/mouse)+MPL (10 μg/mouse), MPL (10 μg/mouse), rapamycin (100 μg/mouse) or Alum (200 μg/mouse)+MPL (10 μg/mouse) to immunize (primary immunization) C57BL6 mice. After 4 weeks, each group of mice was boosted according to the same program as the primary immunization. The mice were killed after two weeks, and serum was prepared for determining the content of HBsAg-specific IgG1, IgG2b and IgG2c."}, "[5]": {"tested_on": "immune response against HCV outer membrane protein E2", "assay": "HCV E2 protein immunization with adjuvants: T cell and antibody responses", "format": "in vivo, C57BL/6 mice", "conditions": "E2 protein 20 μg/mouse; Alum 200 μg, MPL 10 μg, rapamycin 100 μg per mouse; IFNγ ELISA of E2-stimulated spleen cells, FIG. 7A", "method": "C57BL/6 mice were immunized using purified E2 protein (20 μg/mouse, bought from eEnzyme company, Cat No. HCV-E21b) as antigen in mixture with Alum (200 μg/mouse), MPL (10 μg/mouse), rapamycin (100 μg/mouse), MPL (10 µg/mouse)+rapamycin (100 μg/mouse) respectively, and after 4 weeks, were boosted by the same antigen+adjuvant program. 8 weeks after the secondary immunization, mice were immunized for one time with E2 protein (without MPL or rapamycin) (5 μg/mouse), and the mice were killed after 2 weeks. Spleen cells were taken to determine immune response of T cells (FIG. 7A), and serum was taken to determine antibody titers (FIG. 7B). The spleen cells (5×10^5 cells) were stimulated with 10 μg/ml of E2 protein. After 48 hours, the content of IFNγ in the supernatant was determined by enzyme linked immunosorbent assay (ELISA). […] Meanwhile, antibody response induced by the combination of rapamycin and MPL was also the best, which was better than MPL or alum alone (FIG. 7B)."}, "[6]": {"conditions": "BMDCs, 100 nM rapamycin, 100 ng/ml LPS"}, "[7]": {"conditions": "after immunized for two times, HBsAg 5 μg/mouse, rapamycin 100 μg/mouse, serum two weeks after boost"}},
  "note": "“Also recorded” adds a separate entry of the source.",
  "data": [
    {"smiles": "CO[C@H]1C[C@@H]2CC[C@@H](C)[C@@](O)(O2)C(=O)C(=O)N2CCCC[C@H]2C(=O)O[C@H]([C@H](C)C[C@@H]2CC[C@@H](O)[C@H](OC)C2)CC(=O)[C@H](C)/C=C(\\C)[C@@H](O)[C@@H](OC)C(=O)[C@H](C)C[C@H](C)/C=C/C=C/C=C/1C", "note": "[rapamycin]", "values": [
      {"measurement": "amount of IL-12, increase compared with the control group", "setting": "BMDCs [1]; 100 nM rapamycin pre-treatment 1 hour, 100 ng/ml LPS 24 hours, supernatant ELISA, DMSO control", "value": "more than 3 times"},
      {"measurement": "LPS-induced IL-12 production", "setting": "BMDCs [1]; [6]", "value": "enhanced; also recorded: promote"},
      {"measurement": "induced-secretion of IL-23", "setting": "BMDCs [1]; [6]", "value": "remarkably increase; also recorded: enhanced; also recorded: promote"},
      {"measurement": "production of IL-10", "setting": "BMDCs [1]; [6]", "value": "inhibit the production; also recorded: inhibited"},
      {"measurement": "LPS-induced IL-12 production", "setting": "BMDCs [1]; BMDCs, 100 nM rapamycin, 100 ng/ml LPS, listed as Rapamycin", "value": "significantly enhance"},
      {"measurement": "IL-12 expression induced by lipopolysaccharide", "setting": "BMDCs [2]; LPS 100 ng/ml 24 hours", "value": "enhance"},
      {"measurement": "IL-12 expression induced by MPL", "setting": "BMDCs [2]; MPL 1 μg/ml 24 hours", "value": "enhance; also recorded: effectively enhanced"},
      {"measurement": "IL-12 expression induced by R848", "setting": "BMDCs [2]; R848 1 μg/ml 24 hours", "value": "effectively enhanced"},
      {"measurement": "IL-12 expression induced by polyI:C", "setting": "BMDCs [2]; polyI:C 20 μg/ml 24 hours", "value": "effectively enhanced"},
      {"measurement": "HBsAg-specific antigen response enhanced by MPL", "setting": "[3]; FIG. 4a", "value": "increased"},
      {"measurement": "HBsAg-specific CD8+ T cell responses", "setting": "[3]; IFNγ Elispot of spleen cells, CD8 peptides, compared with MPL+Alum immunized group", "value": "increased"},
      {"measurement": "HBsAg-specific CD4+ T cell responses", "setting": "[3]; IFNγ Elispot of spleen cells, compared with MPL+Alum immunized group", "value": "increased"},
      {"measurement": "HBsAg-specific Th2 cell response", "setting": "[3]; IL-4 Elispot, compared with MPL+Alum immunized group", "value": "increased"},
      {"measurement": "HBsAg-specific Th17 cell response", "setting": "[3]; IL-17 Elispot, compared with MPL+Alum immunized group", "value": "increased"},
      {"measurement": "HBsAg-induced antibody titers, IgG1", "setting": "[4]; [7]", "value": "significantly enhance"},
      {"measurement": "HBsAg-induced antibody titers, IgG2b", "setting": "[4]; [7]", "value": "significantly enhance"},
      {"measurement": "HBsAg-induced antibody titers, IgG2c", "setting": "[4]; [7]", "value": "significantly enhance"},
      {"measurement": "adjuvant activity of MPL", "setting": "[4]; homologous prime-boost immunization program, FIG. 6", "value": "remarkably enhance"},
      {"measurement": "immune response of IFN-γ secreting T cells against HCV E2", "setting": "[5]", "value": "inferior effect"}
    ]}
  ]
}
